The subject of assay [1] is active dry yeast “z”. Put plainly: Individual nutritive elements added to normal gravity corn mash: fermentation rate and viable cell numbers. It is filed as cell-based, Saccharomyces cerevisiae. The method, then:
Normal gravity corn mash was prepared using ground #2 yellow dent corn obtained from Commercial Alcohols Inc. (275 Bloomfield Road, Chatham, Ontario, Canada N7M 5J5). […] One part by weight of ground corn was dispersed into three parts of 50° C., sterile dH2O containing 1 mM CaCl2.2H2O. To minimize the development of excessive viscosity during gelatinization, 1.25 mL of high temperature (HT-2X) α-amylase such as was supplied by Alltech Inc. in Nicholasville, Ky., USA (HT-2X α-amylase is no longer available from Alltech), was added per litre of mash as the ground corn was dispersed. It should be noted that if Ca-independent alpha amylases are used such as Termamyl® SC supplied by Novozymes North America in Franklinton, N.C., USA, then the 1 mM CaCl2.2H2O is not required. Following the addition of the ground corn and a five-minute mixing period to produce a homogenous mixture, the temperature was increased until the mash reached 94° C. where it was held at this temperature for 60 min with continued stirring. The temperature of the gelatinized starch was then reduced to 80° C. and liquefied by a second dose of HT-2X αx-amylase (1.25 mL/L) with continued stirring for 30 min. Sterile Celstir® (Wheaton Scientific, Millville, N.J.) fermentor vessels were filled with 1 L aliquots of this mash. To each fermentor vessel, filter-sterilized (25 mm, 0.2 μm Acrodisc® syringe filter, Pall Corporation, Ann Arbor, Mich.) urea (Fisher Scientific, Co., NJ), was added to achieve a final concentration of 8 mM. Cold-sterilization of the mash was assured by the addition of 100 μL of diethyl pyrocarbonate (DEPC, Sigma Chemical Co.) per litre of mash mixing the mash mechanically (IKA-Labortechnik, Staufen, Germany) for 5-10 min followed by cooling the fermentor vessels at 4° C. cold room for ˜72 hrs. The fermentor vessels were then removed from the cold room, connected to 30° C. water bath circulators and mixed. Glucoamylase in the form of Allcholase II 400 supplied by Alltech Inc. was then added (1.5 mL/L mash) 30 min prior to yeast inoculation to initiate saccharification of the dextrins formed during gelatinization and liquefaction (it should be noted that Allcholase II 400 is no longer available and any glucoamylase may be used). The mash thus prepared contained 19-20 g of dissolved solids/100 mL of mash as determined by a digital density meter analyzer (model DMA-45, Anton Paar KG, Graz, Austria) maintained at 20° C.
Eleven grams of a commercially available active dry yeast, designated as “z”, were rehydrated by dispersal in 99 mL of preheated 38° C., 0.1% (w/v) sterile water and incubation for 20 min with periodic shaking in a 38° C. water bath. Fermentor vessels containing normal density corn mash were prepared as described above and inoculated with sufficient active yeast to provide an initial viable cell count of 1×10^7 cells per mL mash. The optimal fermentation temperature for the active dry yeast “z” was determined by conducting fermentations at 30°, 34°, 36°, 38°, and 40° C.
The effects of individual elements on yeast cell biomass production and fermentation in a fermentation feedstock were assessed by separately supplementing of corn mash with nitrogen, phosphorus, magnesium, sulphur and zinc. Nitrogen effects were assessed in corn mashes by the additions of urea to provide final concentrations in the mash of […]. Phosphorus effects were assessed in corn mashes amended with 16 mM urea, by the additions of (NH4)2HPO4 (BDH Chemicals Inc, Toronto, Ont., MW: 132.06) to provide final concentrations of 0, 0.1, 0.2, 0.4, 0.6, and 0.8 g of (NH4)2HPO4/L of mash. Magnesium effects were assessed in corn mashes amended with 16 mM urea, by the additions of MgSO4.7H2O (BDH Chemicals Inc., MW. 246.48) to provide final concentrations of 0, 0.025, 0.049, 0.074, 0.099, 0.148, 0.197 g of MgSO4.7H2O/L of mash. […]

In assay [2] the test system is active dry yeast “z”. Put plainly: EVOP optimization of phosphorus and sulfur concentrations for fermentation rate in corn mash. The format is cell-based, Saccharomyces cerevisiae. As to conditions: combined with 16 mM urea, 0.049 g/L MgSO4.7H2O and 0.273 mg/L ZnSO4.7H2O. How it is done: The Evolution Operation Method (EVOP) described by Box et al, (1969, Evolutionary Operation: A Statistical Method for Process Improvement, John Wiley & Sons, NY, N.Y.) was used to optimize the concentrations of phosphorus and sulfur combined with urea, magnesium and zinc for increasing fermentation rates in corn mash.
Multiple sterile 2-L Celstir® fermentors were each filled with 1 L of corn mash supplemented with 16 mM urea, 0.049 g/L MgSO4.7H2O, and 0.273 mg/L ZnSO4.7H2O. The active dry yeast “z” was used as the inoculum in this study. The EVOP testing was conducted by using the “low” concentration values of phosphorus and sulfur (0.8 g/L (NH4)2HPO4 and 0.16 g/L (NH4)2SO4) from Table 1 as the center points for assessing 4 additional phosphorus and sulphur concentrations around these points for their effects on fermentation rates. If the response of a particular point around the center point was significant, then this particular point became the new center point and 4 new concentration values would be examined as described by Box et al (1969). […] Fermentation rates were determined by repeated sampling and sample processing at specific time intervals as described in Example 1.

[3] abbreviates: ZnSO4.7H2O 0.287 mg/L to 2.30 mg/L (1 to 8 μM), mash with 16 mM urea.
Where [4] appears, read: (NH4)2HPO4 above 0.4 g/L, mash with 16 mM urea.

This is an account of results in patent US20070190628A1, “Yeast food composition for fuel ethanol production” (priority 2006, published 2007).

Structures are written as SMILES.

Take `O.O.O.O.O.O.O.O=S(=O)([O-])[O-].[Mg+2]` [MgSO4.7H2O]: the “effect on fermentation rate” value in the assay on active dry yeast “z” [1] (MgSO4.7H2O exceeding 0.074 g/L (0.3 mM Mg2+), mash with 16 mM urea) is listed as “decreased fermentation rate”.
As to `O.O.O.O.O.O.O.O=S(=O)([O-])[O-].[Zn+2]` [ZnSO4.7H2O], in the assay with active dry yeast “z” [1] (setting [3]), the “effect on fermentation rates” value is recorded as “negative effects” and the “effect on numbers of yeast cells produced” value is recorded as “negative effects”.
With `N.N.O=S(=O)(O)O` [(NH4)2SO4], in the assay on active dry yeast “z” [1] ((NH4)2SO4 above 0.04 g/L, mash with 16 mM urea), the “effect on the rate of fermentation” value was “did not further benefit”. For the same compound, the yeast cell yields with active dry yeast “z” [1] ((NH4)2SO4 above 0.04 g/L, mash with 16 mM urea, increased from 3.3×10^8/mL) was 4e+08 mL⁻¹. Besides, the “optimal concentration for supplementing corn mash” value with active dry yeast “z” [2] is reported as 0.32 g/L.
As to `N.N.O=P(O)(O)O` [(NH4)2HPO4], the “effect on rates of dissolved solids utilization” value with active dry yeast “z” [1] (0.1 g/L to 0.4 g/L (NH4)2HPO4, mash with 16 mM urea) is “significantly increased”. In the assay with active dry yeast “z” [1] (setting [4]), the “effect on cell yields” value is listed as “decreased cell yields” and the “effect on fermentation rates” value is on record as “decreased fermentation rates”. Moreover, the “optimal concentration for supplementing corn mash” value with active dry yeast “z” [2] came out at 1.6 g/L.
